Source: patent US9908868B2, “Isoindolinone compounds as GPR119 modulators for the treatment of diabetes, obesity, dyslipidemia and related disorders” (SANOFI, priority 2014, dated 2018)

The compounds below were run against T1, human GPR119 (Homo sapiens, UniProt Q8TDV5) (assay: Functional cellular assay measuring GPR119-mediated cAMP release (HTRF) in HEK-293 cells stably expressing recombinant human GPR119). Conditions: cAMP response, cell line expressing human GPR119, 30 minutes at room temperature.
T1 construct: expressed in transfected cells
T1 sequence (Q8TDV5 1-335): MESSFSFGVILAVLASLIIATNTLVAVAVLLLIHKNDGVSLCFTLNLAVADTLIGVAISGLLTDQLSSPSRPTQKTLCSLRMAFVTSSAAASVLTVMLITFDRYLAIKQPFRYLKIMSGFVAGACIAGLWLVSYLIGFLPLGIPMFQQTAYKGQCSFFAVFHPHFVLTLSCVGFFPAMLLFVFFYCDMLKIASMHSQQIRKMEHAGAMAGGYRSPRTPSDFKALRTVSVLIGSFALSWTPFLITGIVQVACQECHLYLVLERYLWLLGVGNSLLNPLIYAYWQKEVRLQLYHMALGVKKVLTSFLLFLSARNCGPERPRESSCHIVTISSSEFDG
Type: cell-based
Outline: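 HEK-293 cells stably expressing recombinant human GPR119, suspended at 400000 cells/mL in HBSS/20 mM HEPES/0.1% BSA/2 mM IBMX, exposed to compound for 30 minutes at room temperature. cAMP detected by HTRF (665/620 nm ratio) after 1 h with reagents in lysis buffer. EC50 taken as concentration giving 50% of maximal activation.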

SMILES	EC50
Cc1nc(-c2ccc(O[C@@H]3CCN(c4ccc5c(c4)C(=O)N(CC(=O)N(C)C)C5)C3=O)cc2)no1 [Example 2-32, N,N-dimethyl-2-[6-[(3R)-3-[4-(5-methyl-1,2,4-oxadiazol-3-yl)phenoxy]-2-oxo-pyrrolidin-1-yl]-1-oxo-isoindolin-2-yl]acetamide]	268 nM
CN(C)C(=O)CN1Cc2ccc(N3CC[C@@H](Oc4ccc(NC5=NC(=O)CS5)cc4)C3=O)cc2C1=O [Example 2-33, N,N-dimethyl-2-[1-oxo-6-[(3R)-2-oxo-3-[4-[(4-oxothiazol-2-yl)amino]phenoxy]pyrrolidin-1-yl]isoindolin-2-yl]acetamide]	2210 nM
CC(C)c1noc(-c2ccc(O[C@@H]3CCN(c4ccc5c(c4)C(=O)N(CC(=O)N(C)C)C5)C3=O)cc2)n1 [Example 2-34, 2-[6-[(3R)-3-[4-(3-isopropyl-1,2,4-oxadiazol-5-yl)phenoxy]-2-oxo-pyrrolidin-1-yl]-1-oxo-isoindolin-2-yl]-N,N-dimethyl-acetamide]	84 nM
CN(C)C(=O)CN1Cc2ccc(N3CC[C@@H](Oc4ccc(C(=O)N5CCCC5)cc4)C3=O)cc2C1=O [Example 2-35, N,N-dimethyl-2-[1-oxo-6-[(3R)-2-oxo-3-[4-(pyrrolidine-1-carbonyl)phenoxy]pyrrolidin-1-yl]isoindolin-2-yl]acetamide]	8660 nM
CN(C)C(=O)CN1Cc2ccc(N3CC[C@@H](Oc4ccc(-n5cnnc5)cc4)C3=O)cc2C1=O [Example 2-36, N,N-dimethyl-2-[1-oxo-6-[(3R)-2-oxo-3-[4-(1,2,4-triazol-4-yl)phenoxy]pyrrolidin-1-yl]isoindolin-2-yl]acetamide]	32800 nM
CN(C)C(=O)CN1Cc2ccc(N3CC[C@@H](Oc4ccc(-c5cnco5)cc4)C3=O)cc2C1=O [Example 2-37, N,N-dimethyl-2-[6-[(3R)-3-(4-oxazol-5-ylphenoxy)-2-oxo-pyrrolidin-1-yl]-1-oxo-isoindolin-2-yl]acetamide]	862 nM
CN(C)C(=O)CN1Cc2ccc(N3CC[C@@H](Oc4ccc(-c5cnccn5)cc4)C3=O)cc2C1=O [Example 2-38, N,N-dimethyl-2-[1-oxo-6-[(3R)-2-oxo-3-(4-pyrazin-2-ylphenoxy)pyrrolidin-1-yl]isoindolin-2-yl]acetamide]	808 nM
CCn1nnnc1-c1ccc(O[C@@H]2CCN(c3ccc4c(c3)C(=O)N(CC(=O)N(C)C)C4)C2=O)cc1 [Example 2-39, 2-[6-[(3R)-3-[4-(1-ethyltetrazol-5-yl)phenoxy]-2-oxo-pyrrolidin-1-yl]-1-oxo-isoindolin-2-yl]-N,N-dimethyl-acetamide]	27000 nM
CN(C)C(=O)CN1Cc2ccc(N3CC[C@@H](Oc4ccc(-c5csnn5)cc4)C3=O)cc2C1=O [Example 2-40, N,N-dimethyl-2-[1-oxo-6-[(3R)-2-oxo-3-[4-(thiadiazol-4-yl)phenoxy]pyrrolidin-1-yl]isoindolin-2-yl]acetamide]	337 nM
CN(C)C(=O)CN1Cc2ccc(N3CC[C@@H](Oc4ccc(OC(F)(F)F)c(Cl)c4)C3=O)cc2C1=O [Example 2-41, 2-[6-[(3R)-3-[3-chloro-4-(trifluoromethoxy)phenoxy]-2-oxo-pyrrolidin-1-yl]-1-oxo-isoindolin-2-yl]-N,N-dimethyl-acetamide]	470 nM
CN(C)C(=O)CN1Cc2ccc(N3CC[C@@H](Oc4ccc(-c5nccs5)cc4)C3=O)cc2C1=O [Example 2-42, N,N-dimethyl-2-[1-oxo-6-[(3R)-2-oxo-3-(4-thiazol-2-ylphenoxy)pyrrolidin-1-yl]isoindolin-2-yl]acetamide]	117 nM
Cc1noc(COc2ccc(O[C@@H]3CCN(c4ccc5c(c4)C(=O)N(CC(=O)N(C)C)C5)C3=O)cc2)n1 [Example 2-43, N,N-dimethyl-2-[6-[(3R)-3-[4-[(3-methyl-1,2,4-oxadiazol-5-yl)methoxy]phenoxy]-2-oxo-pyrrolidin-1-yl]-1-oxo-isoindolin-2-yl]acetamide]	1500 nM
CN(C)C(=O)CN1Cc2ccc(N3CC[C@@H](Oc4ccc(-n5cnnn5)cc4)C3=O)cc2C1=O [Example 2-44, N,N-dimethyl-2-[1-oxo-6-[(3R)-2-oxo-3-[4-(tetrazol-1-yl)phenoxy]pyrrolidin-1-yl]isoindolin-2-yl]acetamide]	14700 nM
CCOC(=O)CCc1cc(O[C@@H]2CCN(c3ccc4c(c3)C(=O)N(CC(=O)N(C)C)C4)C2=O)ccc1Cl [Example 2-45, ethyl 3-[2-chloro-5-[(3R)-1-[2-[2-(dimethylamino)-2-oxo-ethyl]-3-oxo-isoindolin-5-yl]-2-oxo-pyrrolidin-3-yl]oxy-phenyl]propanoate]	1510 nM
CN(C)C(=O)CN1Cc2ccc(N3CC[C@@H](Oc4ccc(N5CCCC5)cc4)C3=O)cc2C1=O [Example 2-46, N,N-dimethyl-2-[1-oxo-6-[(3R)-2-oxo-3-(4-pyrrolidin-1-ylphenoxy)pyrrolidin-1-yl]isoindolin-2-yl]acetamide]	6370 nM
CN(C)C(=O)CN1Cc2ccc(N3CC[C@@H](Oc4cnc(OCC5CC5)c(Br)c4)C3=O)cc2C1=O [Example 2-47, 2-[6-[(3R)-3-[[5-bromo-6-(cyclopropylmethoxy)-3-pyridyl]oxy]-2-oxo-pyrrolidin-1-yl]-1-oxo-isoindolin-2-yl]-N,N-dimethyl-acetamide]	90 nM
CN(C)C(=O)CN1Cc2ccc(N3CC[C@@H](Oc4ccc(C(=O)C5CC5)cc4)C3=O)cc2C1=O [Example 2-48, 2-[6-[(3R)-3-[4-(cyclopropanecarbonyl)phenoxy]-2-oxo-pyrrolidin-1-yl]-1-oxo-isoindolin-2-yl]-N,N-dimethyl-acetamide]	202 nM
CC1(C(=O)c2ccc(O[C@@H]3CCN(c4ccc5c(c4)C(=O)N(CC(N)=O)C5)C3=O)cn2)CC1 [Example 2-49, 2-[6-[(3R)-3-[[6-(1-methylcyclopropanecarbonyl)-3-pyridyl]oxy]-2-oxo-pyrrolidin-1-yl]-1-oxo-isoindolin-2-yl]acetamide]	424 nM
NC(=O)CN1Cc2ccc(N3CC[C@@H](Oc4ccc(C(=O)c5ccc(F)cc5)cc4)C3=O)cc2C1=O [Example 2-50, 2-[6-[(3R)-3-[4-(4-fluorobenzoyl)phenoxy]-2-oxo-pyrrolidin-1-yl]-1-oxo-isoindolin-2-yl]acetamide]	102 nM
NC(=O)CN1Cc2ccc(N3CC[C@@H](Oc4ccc(-c5nccs5)cc4)C3=O)cc2C1=O [Example 2-51, 2-[1-oxo-6-[(3R)-2-oxo-3-(4-thiazol-2-ylphenoxy)pyrrolidin-1-yl]isoindolin-2-yl]acetamide]	126 nM
NC(=O)CN1Cc2ccc(N3CC[C@@H](Oc4ccc(C(=O)C5CC5)nc4)C3=O)cc2C1=O [Example 2-52, 2-[6-[(3R)-3-[[6-(cyclopropanecarbonyl)-3-pyridyl]oxy]-2-oxo-pyrrolidin-1-yl]-1-oxo-isoindolin-2-yl]acetamide]	207 nM
NC(=O)CN1Cc2ccc(N3CC[C@@H](Oc4ccc(C(=O)C5CC5)cc4)C3=O)cc2C1=O [Example 2-53, 2-[6-[(3R)-3-[4-(cyclopropanecarbonyl)phenoxy]-2-oxo-pyrrolidin-1-yl]-1-oxo-isoindolin-2-yl]acetamide]	130 nM
CCCCC(=O)c1ccc(O[C@@H]2CCN(c3ccc4c(c3)C(=O)N(CC(N)=O)C4)C2=O)cc1 [Example 2-54, 2-[1-oxo-6-[(3R)-2-oxo-3-(4-pentanoylphenoxy)pyrrolidin-1-yl]isoindolin-2-yl]acetamide]	38 nM
CC1(C(=O)c2ccc(O[C@@H]3CCN(c4ccc5c(c4)C(=O)N(CC(N)=O)C5)C3=O)cc2)CC1 [Example 2-55, 2-[6-[(3R)-3-[4-(1-methylcyclopropanecarbonyl)phenoxy]-2-oxo-pyrrolidin-1-yl]-1-oxo-isoindolin-2-yl]acetamide]	207 nM
NC(=O)CN1Cc2ccc(N3CC[C@@H](Oc4ccc(C(=O)CCC5CC5)nc4)C3=O)cc2C1=O [Example 2-56, 2-[6-[(3R)-3-[[6-(3-cyclopropylpropanoyl)-3-pyridyl]oxy]-2-oxo-pyrrolidin-1-yl]-1-oxo-isoindolin-2-yl]acetamide]	34 nM
CN(C)C(=O)CN1Cc2ccc(N3CC[C@@H](Oc4ccc(C(=O)CCC5CC5)nc4)C3=O)cc2C1=O [Example 2-57, 2-[6-[(3R)-3-[[6-(3-cyclopropylpropanoyl)-3-pyridyl]oxy]-2-oxo-pyrrolidin-1-yl]-1-oxo-isoindolin-2-yl]-N,N-dimethyl-acetamide]	50 nM
CN(C)C(=O)CN1Cc2ccc(N3CC[C@@H](Oc4ccc(C(=O)C5CC5)nc4)C3=O)cc2C1=O [Example 2-58, 2-[6-[(3R)-3-[[6-(cyclopropanecarbonyl)-3-pyridyl]oxy]-2-oxo-pyrrolidin-1-yl]-1-oxo-isoindolin-2-yl]-N,N-dimethyl-acetamide]	251 nM
CN(C)C(=O)CN1Cc2ccc(N3CC[C@@H](Oc4ccc(C(=O)C5(C)CC5)nc4)C3=O)cc2C1=O [Example 2-59, N,N-dimethyl-2-[6-[(3R)-3-[[6-(1-methylcyclopropanecarbonyl)-3-pyridyl]oxy]-2-oxo-pyrrolidin-1-yl]-1-oxo-isoindolin-2-yl]acetamide]	330 nM
Cc1cnc(-c2ccc(O[C@@H]3CCN(c4ccc5c(c4)C(=O)N(CC(=O)N(C)C)C5)C3=O)cn2)s1 [Example 2-60, N,N-dimethyl-2-[6-[(3R)-3-[[6-(5-methylthiazol-2-yl)-3-pyridyl]oxy]-2-oxo-pyrrolidin-1-yl]-1-oxo-isoindolin-2-yl]acetamide]	97 nM
